Biological target: SIK2 (Homo sapiens (Human), UniProt Q9H0K1)
Assay: SIK2 Enzymatic Assay Version 2 (High ATP)
Assay type: biochemical
Settings: 3 mM ATP and 200 μM HDAC5tide final, ADP-Glo Max luminescence
Summary of the method: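 Run at room temperature; SIK2 enzyme at 6 nM (2× final) preincubated with compound 30 min before reaction. ADP formation detected by ADP-Glo Max (2 h reagent, 1 h detection) with luminescence read-out.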

Chain of SIK2 (Q9H0K1 whole entry, species assumed): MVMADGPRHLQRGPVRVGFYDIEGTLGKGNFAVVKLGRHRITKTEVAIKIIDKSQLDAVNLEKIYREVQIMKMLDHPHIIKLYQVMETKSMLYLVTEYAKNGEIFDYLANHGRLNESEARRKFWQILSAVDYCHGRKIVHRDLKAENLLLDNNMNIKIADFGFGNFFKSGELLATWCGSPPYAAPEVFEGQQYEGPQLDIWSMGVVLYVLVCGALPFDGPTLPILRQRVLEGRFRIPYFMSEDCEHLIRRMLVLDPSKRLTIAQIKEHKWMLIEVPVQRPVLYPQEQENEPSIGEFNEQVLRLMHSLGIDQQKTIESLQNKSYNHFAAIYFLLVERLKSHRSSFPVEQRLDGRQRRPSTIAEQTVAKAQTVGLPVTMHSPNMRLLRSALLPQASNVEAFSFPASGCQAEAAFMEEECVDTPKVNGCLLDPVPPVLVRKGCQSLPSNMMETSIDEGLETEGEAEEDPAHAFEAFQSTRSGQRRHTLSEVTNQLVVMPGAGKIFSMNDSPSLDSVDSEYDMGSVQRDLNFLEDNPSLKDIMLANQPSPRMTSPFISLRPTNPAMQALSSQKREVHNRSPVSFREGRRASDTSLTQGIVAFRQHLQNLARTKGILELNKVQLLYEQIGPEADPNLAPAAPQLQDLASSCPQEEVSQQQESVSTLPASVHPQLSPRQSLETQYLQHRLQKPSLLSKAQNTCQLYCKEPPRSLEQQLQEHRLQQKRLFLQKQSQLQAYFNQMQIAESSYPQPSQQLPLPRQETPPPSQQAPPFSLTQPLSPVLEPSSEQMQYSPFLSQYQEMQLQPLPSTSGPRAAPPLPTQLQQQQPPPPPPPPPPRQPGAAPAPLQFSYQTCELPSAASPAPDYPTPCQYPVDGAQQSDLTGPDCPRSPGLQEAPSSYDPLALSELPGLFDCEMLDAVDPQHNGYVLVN

Q: With `Cn1ncc(OC[C@H]2CCN2CCF)c1-c1ccn2nc(NC(=O)C3CC3)cc2c1` [Example 241, N-[5-[4-[[(2R)-1-(2-fluoroethyl)azetidin-2-yl]methoxy]-2-methyl-pyrazol-3-yl]pyrazolo[1,5-a]pyridin-2-yl]cyclopropanecarboxamide] as the compound, how does the IC50 read?
A: 3.5 nM

Q: How did the IC50 turn out when `Cn1ncc(O[C@@H]2CNC[C@@H]2F)c1-c1ccn2nc(NC(=O)C3CC3)cc2c1` [Example 242, N-[5-[4-[(3R,4S)-4-fluoropyrrolidin-3-yl]oxy-2-methyl-pyrazol-3-yl]pyrazolo[1,5-a]pyridin-2-yl]cyclopropanecarboxamide] was run?
A: 8.3 nM

Q: For `COCCN1CC[C@@H]1COc1cnn(C)c1-c1ccn2nc(NC(=O)C3CC3)cc2c1` [Example 243, N-[5-[4-[[(2R)-1-(2-methoxyethyl)azetidin-2-yl]methoxy]-2-methyl-pyrazol-3-yl]pyrazolo[1,5-a]pyridin-2-yl]cyclopropanecarboxamide], which IC50 is on record?
A: 11.3 nM

Q: `CC(C)CN1CC[C@@H]1COc1cnn(C)c1-c1ccn2nc(NC(=O)C3CC3)cc2c1` [Example 244, N-[5-[4-[[(2R)-1-isobutylazetidin-2-yl]methoxy]-2-methyl-pyrazol-3-yl]pyrazolo[1,5-a]pyridin-2-yl]cyclopropanecarboxamide] was tested. Which IC50 did it give?
A: 6.3 nM

Q: `Cn1ncc(OC[C@H]2CCN2CC(C)(C)O)c1-c1ccn2nc(NC(=O)C3CC3)cc2c1` [Example 245, N-[5-[4-[[(2R)-1-(2-hydroxy-2-methyl-propyl)azetidin-2-yl]methoxy]-2-methyl-pyrazol-3-yl]pyrazolo[1,5-a]pyridin-2-yl]cyclopropanecarboxamide] was tested. Which IC50 did it give?
A: 13.7 nM

Q: With `CCCN1CC[C@@H]1COc1cnn(C)c1-c1ccn2nc(NC(=O)C3CC3)cc2c1` [Example 246, N-[5-[2-methyl-4-[[(2R)-1-propylazetidin-2-yl]methoxy]pyrazol-3-yl]pyrazolo[1,5-a]pyridin-2-yl]cyclopropanecarboxamide] as the compound, how does the IC50 read?
A: 1.6 nM

Q: `Cn1ncc(OC[C@H]2CCN2CC2CC2)c1-c1ccn2nc(NC(=O)C3CC3)cc2c1` [Example 247, N-[5-[4-[[(2R)-1-(cyclopropylmethyl)azetidin-2-yl]methoxy]-2-methyl-pyrazol-3-yl]pyrazolo[1,5-a]pyridin-2-yl]cyclopropanecarboxamide] was tested. Which IC50 did it give?
A: 2.7 nM

Q: `[2H]C([2H])([2H])N1CCC[C@@H]1COc1cnn(C)c1-c1ccn2nc(NC(=O)C3CC3)cc2c1` [Example 249, N-[5-[2-methyl-4-[[(2R)-1-(trideuteriomethyl)pyrrolidin-2-yl]methoxy]pyrazol-3-yl]pyrazolo[1,5-a]pyridin-2-yl]cyclopropanecarboxamide] was tested. Which IC50 did it give?
A: 25.5 nM

Q: Which IC50 does the source give for `CC(=O)CN1CC[C@@H]1COc1cnn(C)c1-c1ccn2nc(NC(=O)C3CC3)cc2c1` [Example 251, N-[5-[4-[[(2R)-1-acetonylazetidin-2-yl]methoxy]-2-methyl-pyrazol-3-yl]pyrazolo[1,5-a]pyridin-2-yl]cyclopropanecarboxamide] here?
A: 45.6 nM

Q: How did the IC50 turn out when `C[C@@H](O)CN1CC[C@@H]1COc1cnn(C)c1-c1ccn2nc(NC(=O)C3CC3)cc2c1` [Example 252, N-[5-[4-[[(2R)-1-[(2R)-2-hydroxypropyl]azetidin-2-yl]methoxy]-2-methyl-pyrazol-3-yl]pyrazolo[1,5-a]pyridin-2-yl]cyclopropanecarboxamide] was run?
A: 9.4 nM

Q: For `C[C@H](O)CN1CC[C@@H]1COc1cnn(C)c1-c1ccn2nc(NC(=O)C3CC3)cc2c1` [Example 253, N-[5-[4-[[(2R)-1-[(2S)-2-hydroxypropyl]azetidin-2-yl]methoxy]-2-methyl-pyrazol-3-yl]pyrazolo[1,5-a]pyridin-2-yl]cyclopropanecarboxamide], which IC50 is on record?
A: 2.4 nM

Q: `[2H]C([2H])([2H])C([2H])([2H])N1CC[C@@H]1COc1cnn(C)c1-c1ccn2nc(NC(=O)C3CC3)cc2c1` [Example 254, N-[5-[2-methyl-4-[[(2R)-1-(1,1,2,2,2-pentadeuterioethyl)azetidin-2-yl]methoxy]pyrazol-3-yl]pyrazolo[1,5-a]pyridin-2-yl]cyclopropanecarboxamide] was tested. Which IC50 did it give?
A: 1.5 nM

Q: How did the IC50 turn out when `Cn1ncc(OC[C@H]2CCN2CC(C)(C)C#N)c1-c1ccn2nc(NC(=O)C3CC3)cc2c1` [Example 255, N-[5-[4-[[(2R)-1-(2-cyano-2-methyl-propyl)azetidin-2-yl]methoxy]-2-methyl-pyrazol-3-yl]pyrazolo[1,5-a]pyridin-2-yl]cyclopropanecarboxamide] was run?
A: 51.8 nM

Q: For `C[C@@H]1CC[C@H](COc2cnn(C)c2-c2ccn3nc(NC(=O)C4CC4)cc3c2)N1C` [Example 256, N-[5-[4-[[(2R,5R)-1,5-dimethylpyrrolidin-2-yl]methoxy]-2-methyl-pyrazol-3-yl]pyrazolo[1,5-a]pyridin-2-yl]cyclopropanecarboxamide], which IC50 is on record?
A: 42 nM

Q: How did the IC50 turn out when `CN1C[C@H](c2ccccc2)C[C@@H]1COc1cnn(C)c1-c1ccn2nc(NC(=O)C3CC3)cc2c1` [Example 257, N-[5-[2-methyl-4-[[(2R,4S)-1-methyl-4-phenyl-pyrrolidin-2-yl]methoxy]pyrazol-3-yl]pyrazolo[1,5-a]pyridin-2-yl]cyclopropanecarboxamide] was run?
A: 23.5 nM

Q: With `CN1C[C@@H](c2ccccc2)C[C@@H]1COc1cnn(C)c1-c1ccn2nc(NC(=O)C3CC3)cc2c1` [Example 258, N-[5-[2-methyl-4-[[(2R,4R)-1-methyl-4-phenyl-pyrrolidin-2-yl]methoxy]pyrazol-3-yl]pyrazolo[1,5-a]pyridin-2-yl]cyclopropanecarboxamide] as the compound, how does the IC50 read?
A: 7.3 nM

Q: For `Cn1ncc(OC[C@H]2CCN2C[C@H]2CCCO2)c1-c1ccn2nc(NC(=O)C3CC3)cc2c1` [Example 259, N-(5-(1-methyl-4-(((R)-1-(((R)-tetrahydrofuran-2-yl)methyl)azetidin-2-yl)methoxy)-1H-pyrazol-5-yl)pyrazolo[1,5-a]pyridin-2-yl)cyclopropanecarboxamide], which IC50 is on record?
A: 46.5 nM

Q: Which IC50 does the source give for `Cc1cc(Nc2cc3cc(-c4c(OC[C@H]5CCN5)cnn4C(F)F)ccn3n2)nc(C)n1` [Example 260, 5-[4-[[(2R)-azetidin-2-yl]methoxy]-2-(difluoromethyl)pyrazol-3-yl]-N-(2,6-dimethylpyrimidin-4-yl)pyrazolo[1,5-a]pyridin-2-amine] here?
A: 37.6 nM

Q: How did the IC50 turn out when `CCN1CC[C@@H]1COc1cnn(C(F)F)c1-c1ccn2nc(Nc3cnc(C)cn3)cc2c1` [Example 264, 5-[2-(difluoromethyl)-4-[[(2R)-1-ethylazetidin-2-yl]methoxy]pyrazol-3-yl]-N-(5-methylpyrazin-2-yl)pyrazolo[1,5-a]pyridin-2-amine] was run?
A: 7.7 nM

Q: How did the IC50 turn out when `Cc1cc(Nc2cc3cc(-c4c(O[C@H]5CCN(C)C5)cnn4C)ccn3n2)ncn1` [Example 265, 5-[2-methyl-4-[(3S)-1-methylpyrrolidin-3-yl]oxy-pyrazol-3-yl]-N-(6-methylpyrimidin-4-yl)pyrazolo[1,5-a]pyridin-2-amine] was run?
A: 30.5 nM

Q: How did the IC50 turn out when `CN1CC[C@H](Oc2cnn(C)c2-c2ccn3nc(Nc4cccc(C(F)(F)F)n4)cc3c2)C1` [Example 266, 5-[2-methyl-4-[(3S)-1-methylpyrrolidin-3-yl]oxy-pyrazol-3-yl]-N-[6-(trifluoromethyl)-2-pyridyl]pyrazolo[1,5-a]pyridin-2-amine] was run?
A: 39.5 nM

Q: With `Cc1cc(Nc2cc3cc(-c4c(O[C@H]5CCN(C)C5)cnn4C)ccn3n2)nc(C)n1` [Example 267, N-(2,6-dimethylpyrimidin-4-yl)-5-[2-methyl-4-[(3S)-1-methylpyrrolidin-3-yl]oxy-pyrazol-3-yl]pyrazolo[1,5-a]pyridin-2-amine] as the compound, how does the IC50 read?
A: 29.8 nM

Q: How did the IC50 turn out when `CN1CC[C@H](Oc2cnn(C)c2-c2ccn3nc(Nc4ccn5nccc5n4)cc3c2)C1` [Example 268, N-[5-[2-methyl-4-[(3S)-1-methylpyrrolidin-3-yl]oxy-pyrazol-3-yl]pyrazolo[1,5-a]pyridin-2-yl]pyrazolo[1,5-a]pyrimidin-5-amine] was run?
A: 36.5 nM

Q: For `CN1CC[C@H](Oc2cnn(C)c2-c2ccn3nc(Nc4cc5c(nn4)CCC5)cc3c2)C1` [Example 269, N-(6,7-dihydro-5H-cyclopenta[c]pyridazin-3-yl)-5-[2-methyl-4-[(3S)-1-methylpyrrolidin-3-yl]oxy-pyrazol-3-yl]pyrazolo[1,5-a]pyridin-2-amine], which IC50 is on record?
A: 33.2 nM

Q: How did the IC50 turn out when `CC(C)c1nccc(Nc2cc3cc(-c4c(O[C@H]5CCN(C)C5)cnn4C)ccn3n2)n1` [Example 270, N-(2-isopropylpyrimidin-4-yl)-5-[2-methyl-4-[(3S)-1-methylpyrrolidin-3-yl]oxy-pyrazol-3-yl]pyrazolo[1,5-a]pyridin-2-amine] was run?
A: 47.7 nM

Q: Which IC50 does the source give for `CC(C)c1cc(Nc2cc3cc(-c4c(O[C@H]5CCN(C)C5)cnn4C)ccn3n2)ncn1` [Example 271, N-(6-isopropylpyrimidin-4-yl)-5-[2-methyl-4-[(3S)-1-methylpyrrolidin-3-yl]oxy-pyrazol-3-yl]pyrazolo[1,5-a]pyridin-2-amine] here?
A: 40.8 nM

Q: `Cc1cc(Nc2cc3cc(-c4c(O[C@H]5CCN(C)C5)cnn4C)ccn3n2)nnc1C` [Example 272, N-(5,6-dimethylpyridazin-3-yl)-5-[2-methyl-4-[(3S)-1-methylpyrrolidin-3-yl]oxy-pyrazol-3-yl]pyrazolo[1,5-a]pyridin-2-amine] was tested. Which IC50 did it give?
A: 43.5 nM

Q: `Cc1cc(Nc2cc3cc(-c4c(OC[C@H]5CCN5)cnn4C)ccn3n2)nc(C(F)(F)F)n1` [Example 273, 5-[4-[[(2R)-azetidin-2-yl]methoxy]-2-methyl-pyrazol-3-yl]-N-[6-methyl-2-(trifluoromethyl)pyrimidin-4-yl]pyrazolo[1,5-a]pyridin-2-amine] was tested. Which IC50 did it give?
A: 18.1 nM

Q: How did the IC50 turn out when `Cc1cc(Nc2cc3cc(-c4c(OC[C@H]5CCN5CCF)cnn4C)ccn3n2)nc(C)n1` [Example 274, N-(2,6-dimethylpyrimidin-4-yl)-5-[4-[[(2R)-1-(2-fluoroethyl)azetidin-2-yl]methoxy]-2-methyl-pyrazol-3-yl]pyrazolo[1,5-a]pyridin-2-amine] was run?
A: 0.9 nM

Q: Which IC50 does the source give for `Cc1cc(Nc2cc3cc(-c4c(OC[C@H]5CCN5)cnn4C)ccn3n2)nnc1C` [Example 275, 5-[4-[[(2R)-azetidin-2-yl]methoxy]-2-methyl-pyrazol-3-yl]-N-(5,6-dimethylpyridazin-3-yl)pyrazolo[1,5-a]pyridin-2-amine] here?
A: 32.2 nM

— US20240174662A1, “SMALL MOLECULE INHIBITORS OF SALT INDUCIBLE KINASES” (Janssen Biotech, Inc., priority 2021, published 2024)
